Experimental data reported in patent US6737383B1, “Herbicidal oxadiazolidines” (priority 1999, dated 2004).

Assays:
[1] = test system: surinam grass; assay: Test B pre/postemergence surinam grass; assay type: in vivo, Brachiaria decumbens
In short: (§1)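 Response is a visual 0-to-10 score relative to untreated plants, where 0 means no effect and 10 means complete control, taken twelve to sixteen days after application. Treatments went onto soil at planting and onto foliage of 1- to 4-leaf plants, using a surfactant-containing non-phytotoxic solvent.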

[2] = test system: smallflower flatsedge; assay: Test B flood test smallflower flatsedge; assay type: in vivo, Cyperus difformis
In short: (§2)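 Read-out is a visual response score from 0 (no effect) to 10 (complete control), assigned by comparison with untreated controls. Treatment was applied at the 2-leaf stage, and plants stayed in the greenhouse for twelve to sixteen days before scoring.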

[3] = test system: purple nutsedge; assay: Test B pre/postemergence purple nutsedge; assay type: in vivo, Cyperus rotundus; conditions: for Plant response rating, Nutsedge: scale of 0 to 10 where 0 is no effect and 10 is complete control
In short: as §1

[4] = test system: rice; assay: Test B flood test rice; assay type: in vivo, Oryza sativa
In short: as §2

[5] = test system: cocklebur; assay: Test B pre/postemergence cocklebur; assay type: in vivo, Xanthium strumarium
In short: as §1

[6] = test system: bamyardgrass; assay: Test B flood test barnyardgrass; assay type: in vivo, Echinochloa crus-galli
In short: as §2

[7] = test system: pigweed; assay: Test B pre/postemergence pigweed; assay type: in vivo, Amaranthus retroflexus; conditions: for Plant response rating, Redroot pigweed: scale of 0 to 10 where 0 is no effect and 10 is complete control
In short: as §1

[8] = test system: rape; assay: Test B pre/postemergence rape; assay type: in vivo, Brassica napus; conditions: for Plant response rating, Rape: scale of 0 to 10 where 0 is no effect and 10 is complete control
In short: as §1

[9] = test system: bedstraw; assay: Test B pre/postemergence bedstraw; assay type: in vivo, Galium aparine; conditions: Preemergence, scale of 0 to 10 where 0 is no effect and 10 is complete control
In short: as §1

[10] = test system: sugar beet; assay: Test B pre/postemergence sugar beet; assay type: in vivo, Beta vulgaris; conditions: for Plant response rating, Sugarbeets: scale of 0 to 10 where 0 is no effect and 10 is complete control
In short: as §1

[11] = test system: corn; assay: Test B pre/postemergence corn; assay type: in vivo, Zea mays
In short: as §1

[12] = test system: wild oat; assay: Test B pre/postemergence wild oat; assay type: in vivo, Avena fatua; conditions: for Plant response rating, Wild oats: scale of 0 to 10 where 0 is no effect and 10 is complete control
In short: as §1

[13] = test system: velvetleaf; assay: Test B pre/postemergence velvetleaf; assay type: in vivo, Abutilon theophrasti; conditions: for Plant response rating, Velvetleaf: scale of 0 to 10 where 0 is no effect and 10 is complete control
In short: as §1

[14] = test system: blackgrass; assay: Test B pre/postemergence blackgrass; assay type: in vivo, Alopecurus myosuroides
In short: as §1

[15] = test system: morningglory; assay: Test B pre/postemergence morningglory; assay type: in vivo, Ipomoea hederacea; conditions: for Plant response rating, Morningglory: scale of 0 to 10 where 0 is no effect and 10 is complete control
In short: as §1

[16] = test system: soybean; assay: Test B pre/postemergence soybean; assay type: in vivo, Glycine max; conditions: for Plant response rating, Soybean: scale of 0 to 10 where 0 is no effect and 10 is complete control
In short: as §1

[17] = Postemergence, Rate 500 g/ha, scale of 0 to 10 where 0 is no effect and 10 is complete control
[18] = Preemergence, Rate 62 g/ha, scale of 0 to 10 where 0 is no effect and 10 is complete control
[19] = Preemergence, Rate 125 g/ha, scale of 0 to 10 where 0 is no effect and 10 is complete control
[20] = Preemergence, Rate 250 g/ha, scale 0 to 10, 0 is no effect, 10 is complete control
[21] = Preemergence, Rate 500 g/ha, scale 0 to 10, 0 is no effect, 10 is complete control
[22] = Rate 62 g/ha, Postemergence, scale 0 to 10, 0 no effect, 10 complete control
[23] = Rate 125 g/ha, Postemergence, scale 0 to 10, 0 is no effect, 10 is complete control
[24] = Rate 62 g/ha, flood test species, Pre-emergence, visual evaluation after twelve to sixteen days
[25] = Rate 125 g/ha, under heading Pre-emergence, flood test species, visual evaluation after twelve to sixteen days
[26] = Rate 250 g/ha, Pre-emergence (flood test species), scale 0 to 10, 0 is no effect, 10 is complete control
[27] = Rate 500 g/ha, Pre-emergence, flood test species, scale 0 to 10 (0 no effect, 10 complete control)
[28] = Postemergence, Rate 250 g/ha, scale 0 to 10

CC(C)N(C(=O)n1oc(=O)n(CC#N)c1=O)c1ccc(Cl)cc1 [Compound 476]
B. signalgrass plant response rating ([1]; Postemergence, Rate 250 g/ha, scale 0 to 10, 0 no effect, 10 complete control): 0 | B. signalgrass plant response rating [1, 17]: 0 | Plant response rating, B. signalgrass [1, 18]: 0 | Plant response rating, B. signalgrass [1, 19]: 0 | B. signalgrass plant response rating [1, 20]: 0 | B. signalgrass plant response rating [1, 21]: 0 | B. signalgrass plant response rating [1, 22]: 0 | B. signalgrass plant response rating [1, 23]: 0 | Plant response rating, S. Flatsedge (0 to 10 scale, 0 is no effect, 10 is complete control) [2, 24]: 0 | S. Flatsedge plant response rating (0 to 10 scale, 0 is no effect, 10 is complete control) [2, 25]: 0 | S. Flatsedge plant response rating [2, 26]: 0 | S. Flatsedge plant response rating [2, 27]: 0 | Nutsedge plant response rating [3, 28]: 0 | Plant response rating, Nutsedge ([3]; Preemergence, Rate 62 g/ha): 0 | Plant response rating, Nutsedge ([3]; Preemergence, Rate 125 g/ha): 0 | Nutsedge plant response rating [3, 20]: 0 | Nutsedge plant response rating [3, 21]: 0 | Nutsedge plant response rating [3, 22]: 0 | Nutsedge plant response rating [3, 23]: 0 | Plant response rating, Rice (0 to 10 scale, 0 is no effect, 10 is complete control) [4, 24]: 0 | Rice plant response rating (0 to 10 scale, 0 is no effect, 10 is complete control) [4, 25]: 0 | Rice plant response rating [4, 26]: 0 | Rice plant response rating [4, 27]: 0 | Cocklebur plant response rating [5, 28]: 0 | Cocklebur plant response rating [5, 17]: 0 | Plant response rating, Cocklebur [5, 18]: 0 | Plant response rating, Cocklebur [5, 19]: 0 | Cocklebur plant response rating [5, 20]: 0 | Cocklebur plant response rating [5, 21]: 0 | Cocklebur plant response rating [5, 22]: 0 | Cocklebur plant response rating [5, 23]: 0 | Plant response rating, Barnyardgrass (0 to 10 scale, 0 is no effect, 10 is complete control) [6, 24]: 0 | Barnyardgrass plant response rating (0 to 10 scale, 0 is no effect, 10 is complete control) [6, 25]: 0 | Barnyardgrass plant response rating [6, 26]: 0 | Barnyardgrass plant response rating [6, 27]: 0 | Redroot pigweed plant response rating [7, 28]: 0 | Plant response rating, Redroot pigweed ([7]; Preemergence, Rate 62 g/ha): 0 | Plant response rating, Redroot pigweed ([7]; Preemergence, Rate 125 g/ha): 0 | Redroot pigweed plant response rating [7, 20]: 2 | Redroot pigweed plant response rating [7, 21]: 4 | Redroot pigweed plant response rating [7, 22]: 0 | Redroot pigweed plant response rating [7, 23]: 0 | Rape plant response rating [8, 28]: 0 | Plant response rating, Rape ([8]; Preemergence, Rate 62 g/ha): 0 | Plant response rating, Rape ([8]; Preemergence, Rate 125 g/ha): 0 | Rape plant response rating [8, 20]: 0 | Rape plant response rating [8, 21]: 0 | Rape plant response rating [8, 22]: 0 | Rape plant response rating [8, 23]: 0 | Plant response rating, Bedstraw ([9]; Rate 62 g/ha): 0 | Plant response rating, Bedstraw ([9]; Rate 125 g/ha): 0 | Sugarbeets plant response rating [10, 28]: 0 | Plant response rating, Sugarbeets ([10]; Preemergence, Rate 62 g/ha): 0 | Plant response rating, Sugarbeets ([10]; Preemergence, Rate 125 g/ha): 0 | Sugarbeets plant response rating [10, 20]: 0 | Sugarbeets plant response rating [10, 21]: 0 | Sugarbeets plant response rating [10, 22]: 0 | Sugarbeets plant response rating [10, 23]: 0 | Corn plant response rating [11, 28]: 0 | Corn plant response rating [11, 17]: 0 | Plant response rating, Corn [11, 18]: 0 | Plant response rating, Corn [11, 19]: 0 | Corn plant response rating [11, 20]: 0 | Corn plant response rating [11, 21]: 0 | Corn plant response rating [11, 22]: 0 | Corn plant response rating [11, 23]: 0 | Wild oats plant response rating [12, 28]: 0 | Plant response rating, Wild oats ([12]; Preemergence, Rate 62 g/ha): 0 | Plant response rating, Wild oats ([12]; Preemergence, Rate 125 g/ha): 0 | Wild oats plant response rating [12, 20]: 0 | Wild oats plant response rating [12, 21]: 0 | Wild oats plant response rating [12, 22]: 0 | Wild oats plant response rating [12, 23]: 0 | Velvetleaf plant response rating [13, 28]: 2 | Plant response rating, Velvetleaf ([13]; Preemergence, Rate 62 g/ha): 0 | Plant response rating, Velvetleaf ([13]; Preemergence, Rate 125 g/ha): 0 | Velvetleaf plant response rating [13, 20]: 0 | Velvetleaf plant response rating [13, 21]: 0 | Velvetleaf plant response rating [13, 22]: 0 | Velvetleaf plant response rating [13, 23]: 1 | Blackgrass plant response rating [14, 28]: 0 | Blackgrass plant response rating [14, 17]: 2 | Plant response rating, Blackgrass [14, 18]: 0 | Plant response rating, Blackgrass [14, 19]: 0 | Blackgrass plant response rating [14, 20]: 0 | Blackgrass plant response rating [14, 21]: 0 | Blackgrass plant response rating [14, 22]: 0 | Blackgrass plant response rating [14, 23]: 0 | Morningglory plant response rating [15, 28]: 0 | Plant response rating, Morningglory ([15]; Preemergence, Rate 62 g/ha): 0 | Plant response rating, Morningglory ([15]; Preemergence, Rate 125 g/ha): 0 | Morningglory plant response rating [15, 20]: 0 | Morningglory plant response rating [15, 21]: 0 | Morningglory plant response rating [15, 22]: 0 | Morningglory plant response rating [15, 23]: 0 | Soybean plant response rating [16, 28]: 2 | Plant response rating, Soybean ([16]; Preemergence, Rate 62 g/ha): 0 | Plant response rating, Soybean ([16]; Preemergence, Rate 125 g/ha): 0 | Soybean plant response rating [16, 20]: 0 | Soybean plant response rating [16, 21]: 0 | Soybean plant response rating [16, 22]: 0 | Soybean plant response rating [16, 23]: 1
